{"source": "patent US20260015350A1", "about": "“AZAQUINAZOLINE PAN-KRAS INHIBITORS” (Mirati Therapeutics, Inc., priority 2022, published 2026)", "key": {"[1]": {"test_system": "KRas-mediated phosphorylation of ERK in AsPC-1 cells", "test": "Inhibition of KRas-mediated phosphorylation of ERK (Cisbio HTRF pERK), AsPC-1 cells", "type": "cell-based", "conditions": "Homo sapiens; for IC50: ASPC1, AsPC-1 cells, HTRF pERK", "outline": "(§1)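 Compound treatment lasts 3 hrs on 6,000 seeded cells, testing 10 doses from a 10 uM top concentration in 3-fold decrements at 0.8% final DMSO. Trametinib at 0.2 uM defines the Min signal. Detection is HTRF on cold-lysed cell extracts.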"}, "[2]": {"test_system": "KRas-mediated phosphorylation of ERK in H727 cells", "test": "Inhibition of KRas-mediated phosphorylation of ERK (Cisbio HTRF pERK), H727 cells", "type": "cell-based", "conditions": "Homo sapiens; for IC50: NCI-H727, H727 cells, HTRF pERK", "outline": "as §1"}, "KRas^G12V": {"target": "T1, KRas^G12V (Homo sapiens, UniProt P01116, G12V)", "T1 construct": "Biotinylated KRas (corresponding to amino acids 1-169, produced at Accelegan Inc.); biotin (biotinylated); purchased Accelegan Inc", "T1 sequence (P01116 1-169 isoform P01116-2 G12V)": "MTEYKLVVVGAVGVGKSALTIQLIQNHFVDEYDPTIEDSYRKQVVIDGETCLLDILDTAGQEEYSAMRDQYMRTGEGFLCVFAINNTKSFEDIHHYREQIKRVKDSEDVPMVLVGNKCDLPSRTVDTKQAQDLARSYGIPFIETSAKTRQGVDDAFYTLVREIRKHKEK", "test": "KRas binding assay (TR-FRET tracer displacement), KRas G12V"}, "[3]": {"test_system": "KRas-mediated phosphorylation of ERK in H358 cells", "test": "Inhibition of KRas-mediated phosphorylation of ERK (Cisbio HTRF pERK), H358 cells", "type": "cell-based", "conditions": "Homo sapiens; for inhibition at 0.1 µM: NCI-H358, 3 h, single point, 100 nM compound, 3 hrs", "method": "(§2) Inhibition of KRas Phosphorylation of ERK (HTRF) by Exemplary Compounds of Formula (I) Cisbio HTRF Advanced PERK Assay Catalog #64[…] […] Add 10 mL of media to stop trypsinizing. Pipette the cells into a conical bottom 50 mL centrifuge tube and centrifuge 5 min×1000 rpm. […] Re-suspend the cell pellet in media, take a cell count, and then adjust the cell density using fresh media. […] Seed 6,000 cells into cell culture plate with 50 μL media. […] Use Tecan to complete the compound addition. Compounds start from 10 uM top, 3-fold dilution, and 10 doses. The final DMSO concentration is 0.8%. Dispensed 0.2 uM Trametinib as Min control. […] Incubate cell plate for 3 hrs in the incubator. […] Dilute 1 volume of 4× lysis buffer with 3 volumes of deionized water. […] Keep lysis buffer on the ice. […] At the end of the compound treatment, flick-off the media. […] Add 35 μL of lysis buffer per well using a Multidrop Combi. Then place on a plate agitator shaking at 300 rpm at 4° C. for 40 mins. […] Make up the HTRF antibody buffer. For each assay plate, mix 50 μL of d2-conjugate antibody with 950 μL of detection buffer. Similarly, mix 50 μL of Cryptate antibody with 950 μL of detection buffer. Then mix the two diluted antibodies together. […] Dispense 3.4 μL the antibody buffer to wells of an empty assay plate. Seal the plate and centrifuge plate 30 sec×1000 rpm. […] At the end of the 4° C. lysis, centrifuge the lysate plates 3 mins×1500 rpm. […] Use the Bravo to transfer 13.6 μL of lysate from cell culture plate to assay plate. Then incubate assay plate for 2 hrs at room temperature. 8. At the end of incubation, read plate on the Envision after centrifuging plate 30 sec×1000 rpm."}, "[4]": {"test_system": "KRas-mediated phosphorylation of ERK in A549 cells", "test": "Inhibition of KRas-mediated phosphorylation of ERK (Cisbio HTRF pERK), A549 cells", "type": "cell-based", "conditions": "Homo sapiens; for inhibition at 0.1 µM: A549, 3 h, single point, 100 nM compound, 3 hrs", "method": "as §2"}, "KRas^G12R": {"target": "T2, KRas^G12R (Homo sapiens, UniProt P01116, G12R)", "T2 construct": "Biotinylated KRas (corresponding to amino acids 1-169, produced at Accelegan Inc.); biotin (biotinylated); purchased Accelegan Inc", "T2 sequence (P01116 1-169 isoform P01116-2 G12R)": "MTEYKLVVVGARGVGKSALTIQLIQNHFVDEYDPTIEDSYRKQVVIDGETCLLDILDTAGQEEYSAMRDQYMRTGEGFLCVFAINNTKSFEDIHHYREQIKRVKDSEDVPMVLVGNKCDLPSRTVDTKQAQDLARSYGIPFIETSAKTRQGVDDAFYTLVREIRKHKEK", "test": "KRas binding assay (TR-FRET tracer displacement), KRas G12R"}, "[5]": {"test_system": "KRas-mediated phosphorylation of ERK in H460 cells", "test": "Inhibition of KRas-mediated phosphorylation of ERK (Cisbio HTRF pERK), H460 cells", "type": "cell-based", "conditions": "Homo sapiens; for inhibition at 0.1 µM: NCI-H460, 3 h, single point, 100 nM compound, 3 hrs", "method": "as §2"}, "KRas^G12D": {"target": "T3, KRas^G12D (Homo sapiens, UniProt P01116, G12D)", "T3 construct": "Biotinylated KRas (corresponding to amino acids 1-169, produced at Accelegan Inc.); biotin (biotinylated); purchased Accelegan Inc", "T3 sequence (P01116 1-169 isoform P01116-2 G12D)": "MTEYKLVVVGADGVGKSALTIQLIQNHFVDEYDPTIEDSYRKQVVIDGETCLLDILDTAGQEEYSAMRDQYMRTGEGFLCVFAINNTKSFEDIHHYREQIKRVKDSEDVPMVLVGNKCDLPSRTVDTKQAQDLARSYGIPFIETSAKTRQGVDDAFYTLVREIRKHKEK", "test": "KRas binding assay (TR-FRET tracer displacement), KRas G12D"}, "[6]": {"test_system": "KRas-mediated phosphorylation of ERK in HCT116 cells", "test": "Inhibition of KRas-mediated phosphorylation of ERK (Cisbio HTRF pERK), HCT116 cells", "type": "cell-based", "conditions": "Homo sapiens; for inhibition at 0.1 µM: HCT-116, 3 h, single point, 100 nM compound, 3 hrs", "method": "as §2"}}, "data": [{"smiles": "CCc1c(F)ccc2cc(O)cc(-c3ncc4c(N5C[C@@H]6C[C@]6(c6nc(C)no6)C5)nc(OC[C@@]56CCCN5C[C@H](F)C6)nc4c3F)c12", "note": "[Example 607, 5-ethyl-6-fluoro-4-(8-fluoro-2-(((2R,7aS)-2-fluorotetrahydro-1H-pyrrolizin-7a(5H)-yl)methoxy)-4-((1R,5R)-1-(3-methyl-1,2,4-oxadiazol-5-yl)-3-azabicyclo[3.1.0]hexan-3-yl)pyrido[4,3-d]pyrimidin-7-yl)naphthalen-2-ol]", "values": [{"measurement": "IC50", "setting": "[1]", "result": 1740, "unit": "nM"}, {"measurement": "IC50", "setting": "[2]", "result": 1770, "unit": "nM"}, {"measurement": "IC50", "setting": "KRas^G12V", "result": 53, "unit": "nM"}, {"measurement": "inhibition at 0.1 µM", "setting": "[3]", "result": 9, "unit": "%"}, {"measurement": "inhibition at 0.1 µM", "setting": "[4]", "result": 34, "unit": "%"}, {"measurement": "IC50", "setting": "KRas^G12R", "result": 99, "unit": "nM"}, {"measurement": "inhibition at 0.1 µM", "setting": "[5]", "result": 62, "unit": "%"}, {"measurement": "IC50", "setting": "KRas^G12D", "result": 151, "unit": "nM"}, {"measurement": "inhibition at 0.1 µM", "setting": "[6]", "result": 24, "unit": "%"}]}, {"smiles": "CCc1c(F)ccc2cc(O)cc(-c3ncc4c(N5CCCn6nc(S(=O)(=O)NC)cc6C5)nc(OC[C@@]56CCCN5C[C@H](F)C6)nc4c3F)c12", "note": "[Example 676, 5-(7-(8-ethyl-7-fluoro-3-hydroxynaphthalen-1-yl)-8-fluoro-2-(((2R,7aS)-2-fluorohexahydro-1H-pyrrolizin-7a-yl)methoxy)pyrido[4,3-d]pyrimidin-4-yl)-N-methyl-5,6,7,8-tetrahydro-4H-pyrazolo[1,5-a][1,4]diazepine-2-sulfonamide]", "values": [{"measurement": "IC50", "setting": "[1]", "result": 996, "unit": "nM"}, {"measurement": "IC50", "setting": "[2]", "result": 5130, "unit": "nM"}, {"measurement": "IC50", "setting": "KRas^G12V", "result": 6, "unit": "nM"}, {"measurement": "inhibition at 0.1 µM", "setting": "[3]", "result": -4, "unit": "%"}, {"measurement": "inhibition at 0.1 µM", "setting": "[4]", "result": 19, "unit": "%"}, {"measurement": "IC50", "setting": "KRas^G12R", "result": 5, "unit": "nM"}, {"measurement": "inhibition at 0.1 µM", "setting": "[5]", "result": 11, "unit": "%"}, {"measurement": "IC50", "setting": "KRas^G12D", "result": 2, "unit": "nM"}, {"measurement": "inhibition at 0.1 µM", "setting": "[6]", "result": 4, "unit": "%"}]}, {"smiles": "CCOC(=O)C12CCC(CN(c3nc(OC[C@@]45CCCN4C[C@H](F)C5)nc4c(F)c(-c5cc(O)cc6ccc(F)c(CC)c56)ncc34)C1)C2(F)F", "note": "(stereo partly drawn) [Example 899, ethyl 3-(7-(8-ethyl-7-fluoro-3-hydroxynaphthalen-1-yl)-8-fluoro-2-(((2R,7aS)-2-fluorotetrahydro-1H-pyrrolizin-7a(5H)-yl)methoxy)pyrido[4,3-d]pyrimidin-4-yl)-8,8-difluoro-3-azabicyclo[3.2.1]octane-1-carboxylate]", "values": [{"measurement": "IC50", "setting": "[1]", "result": 5370, "unit": "nM"}, {"measurement": "IC50", "setting": "[2]", "result": 4410, "unit": "nM"}, {"measurement": "IC50", "setting": "KRas^G12V", "result": 240, "unit": "nM"}, {"measurement": "IC50", "setting": "[3]; NCI-H358, HTRF pERK", "result": 1410, "unit": "nM"}, {"measurement": "IC50", "setting": "[4]; HTRF pERK", "result": 3530, "unit": "nM"}, {"measurement": "IC50", "setting": "KRas^G12R", "result": 66, "unit": "nM"}, {"measurement": "IC50", "setting": "[5]; NCI-H460, HTRF pERK", "result": 1290, "unit": "nM"}, {"measurement": "IC50", "setting": "KRas^G12D", "result": 692, "unit": "nM"}, {"measurement": "IC50", "setting": "[6]; HCT-116, HTRF pERK", "result": 6690, "unit": "nM"}]}, {"smiles": "C#CC1(F)CCN(c2nc(OC[C@@]34CCCN3C[C@H](F)C4)nc3c(F)c(-c4cc(O)cc5ccc(F)c(CC)c45)ncc23)CC1", "note": "[Example 553, 5-ethyl-4-(4-(4-ethynyl-4-fluoropiperidin-1-yl)-8-fluoro-2-(((2R,7aS)-2-fluorotetrahydro-1H-pyrrolizin-7a(5H)-yl)methoxy)pyrido[4,3-d]pyrimidin-7-yl)-6-fluoronaphthalen-2-ol]", "values": [{"measurement": "IC50", "setting": "[1]", "result": 5160, "unit": "nM"}, {"measurement": "IC50", "setting": "[2]", "result": 1630, "unit": "nM"}, {"measurement": "IC50", "setting": "KRas^G12V", "result": 77, "unit": "nM"}, {"measurement": "inhibition at 0.1 µM", "setting": "[3]", "result": 3, "unit": "%"}, {"measurement": "inhibition at 0.1 µM", "setting": "[4]", "result": 0, "unit": "%"}, {"measurement": "IC50", "setting": "KRas^G12R", "result": 79, "unit": "nM"}, {"measurement": "inhibition at 0.1 µM", "setting": "[5]", "result": 0, "unit": "%"}, {"measurement": "IC50", "setting": "KRas^G12D", "result": 864, "unit": "nM"}, {"measurement": "inhibition at 0.1 µM", "setting": "[6]", "result": 6, "unit": "%"}]}, {"smiles": "CCc1c(F)ccc2cc(O)cc(-c3ncc4c(NCc5cc(C(=O)N(C)C)nn5CC#N)nc(OC[C@@]56CCCN5C[C@H](F)C6)nc4c3F)c12", "note": "[Example 657, 1-(cyanomethyl)-5-(((7-(8-ethyl-7-fluoro-3-hydroxynaphthalen-1-yl)-8-fluoro-2-(((2R,7aS)-2-fluorotetrahydro-1H-pyrrolizin-7a(5H)-yl)methoxy)pyrido[4,3-d]pyrimidin-4-yl)amino)methyl)-N,N-dimethyl-1H-pyrazole-3-carboxamide]", "values": [{"measurement": "inhibition at 0.1 µM", "setting": "[1]; ASPC1, 3 h, single point, 100 nM compound, 3 hrs, AsPC-1 cells", "result": -24, "unit": "%"}, {"measurement": "inhibition at 0.1 µM", "setting": "[2]; NCI-H727, 3 h, single point, 100 nM compound, 3 hrs, H727 cells", "result": 19, "unit": "%"}, {"measurement": "IC50", "setting": "[2]", "result": 2660, "unit": "nM"}, {"measurement": "IC50", "setting": "KRas^G12V", "result": "< 2", "unit": "nM"}, {"measurement": "inhibition at 0.1 µM", "setting": "[3]", "result": 27, "unit": "%"}, {"measurement": "inhibition at 0.1 µM", "setting": "[4]", "result": -2, "unit": "%"}, {"measurement": "IC50", "setting": "KRas^G12R", "result": "< 2", "unit": "nM"}, {"measurement": "inhibition at 0.1 µM", "setting": "[5]", "result": -18, "unit": "%"}, {"measurement": "IC50", "setting": "KRas^G12D", "result": 4, "unit": "nM"}, {"measurement": "inhibition at 0.1 µM", "setting": "[6]", "result": -9, "unit": "%"}]}]}
